Experimental data from article PMC5286421, “Interactions of retinoids with the ABC transporters P-glycoprotein and Breast Cancer Resistance Protein” (Scientific Reports, 2017).
Where two headings read alike, the source gives them in different places.

What was measured:
[1] = ref PubChem Compound Database (CID); cited from earlier work
[2] = system: NIH 3T3 / NIH 3T3 MDR1 and MDCK / MDCK ABCG2 cells; test: TMA-DPH steady-state fluorescence anisotropy (membrane fluidity)
[3] = system: NIH 3T3 / NIH 3T3 MDR1 and MDCK / MDCK ABCG2 cells; test: DPH steady-state fluorescence anisotropy (membrane fluidity); details: retinoids 100 μM; for Effect on DPH fluorescence anisotropy: cyclosporin 10 μM, Ko143 2 μM, 10 min 37 °C, all tested cell lines
[4] = molecular target: T1, Pgp (Homo sapiens, UniProt P08183); test: Calcein accumulation test (Pgp transport activity) in NIH 3T3 MDR1 cells; details: 20 min pre-treatment 37 °C, 500 nM calcein-AM 20 min
T1 sequence (P08183 whole entry): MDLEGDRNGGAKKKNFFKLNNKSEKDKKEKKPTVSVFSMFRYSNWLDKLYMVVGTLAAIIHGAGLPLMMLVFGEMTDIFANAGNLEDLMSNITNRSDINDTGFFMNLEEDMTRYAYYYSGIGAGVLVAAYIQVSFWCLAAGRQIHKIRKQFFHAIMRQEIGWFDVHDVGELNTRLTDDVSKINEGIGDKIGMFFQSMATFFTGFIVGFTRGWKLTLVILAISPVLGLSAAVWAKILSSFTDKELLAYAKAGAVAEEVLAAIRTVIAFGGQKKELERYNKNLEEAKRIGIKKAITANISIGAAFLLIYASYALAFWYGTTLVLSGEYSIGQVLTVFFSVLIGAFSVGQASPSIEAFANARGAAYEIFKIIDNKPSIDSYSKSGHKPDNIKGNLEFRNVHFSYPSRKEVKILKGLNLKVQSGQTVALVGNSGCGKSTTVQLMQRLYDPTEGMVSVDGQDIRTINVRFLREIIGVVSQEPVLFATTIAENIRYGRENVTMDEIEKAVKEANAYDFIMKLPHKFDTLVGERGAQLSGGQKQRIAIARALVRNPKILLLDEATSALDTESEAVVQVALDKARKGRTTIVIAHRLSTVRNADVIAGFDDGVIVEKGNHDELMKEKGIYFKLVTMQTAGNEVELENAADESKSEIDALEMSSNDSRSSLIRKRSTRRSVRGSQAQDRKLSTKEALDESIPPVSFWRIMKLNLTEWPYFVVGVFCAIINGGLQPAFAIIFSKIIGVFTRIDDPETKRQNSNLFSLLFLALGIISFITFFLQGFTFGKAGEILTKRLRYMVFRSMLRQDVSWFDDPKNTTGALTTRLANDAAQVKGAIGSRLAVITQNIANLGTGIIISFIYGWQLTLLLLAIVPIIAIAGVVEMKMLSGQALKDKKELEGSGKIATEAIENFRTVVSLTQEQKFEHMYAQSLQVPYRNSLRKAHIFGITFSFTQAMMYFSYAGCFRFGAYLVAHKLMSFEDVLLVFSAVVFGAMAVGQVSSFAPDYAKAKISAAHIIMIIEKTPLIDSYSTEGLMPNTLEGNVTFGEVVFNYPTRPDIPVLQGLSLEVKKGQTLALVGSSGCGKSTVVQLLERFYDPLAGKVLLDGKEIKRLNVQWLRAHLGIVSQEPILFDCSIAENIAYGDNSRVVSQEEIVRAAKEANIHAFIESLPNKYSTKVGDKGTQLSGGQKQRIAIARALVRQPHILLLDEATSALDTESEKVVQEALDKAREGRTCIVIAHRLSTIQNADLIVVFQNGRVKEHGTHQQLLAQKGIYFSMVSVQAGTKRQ
Description: (§2) Calcein-AM was applied to measure the transport activity of Pgp[51], while ABCG2 mediated transport was measured in mitoxantrone accumulation tests[18]. Cells were harvested and washed three times in PBS containing 7 mM glucose (gl-PBS). […] Dead cells were excluded from the analysis on the basis of propidium iodide (PI) staining.
(§3) Flow cytometric analysis was carried out on a Becton Dickinson FACSAria III Cell Sorter (Becton Dickinson, Mountain View, CA, USA). Calcein was excited by the 488 nm line of a solid state laser and the emitted light was detected using a 502 nm dichroic mirror and a 530/30 nm band-pass filter. […] AlexaFluor647 and mitoxantrone signals were detected with a 633 nm excitation laser and a 660/20 nm band-pass filter.

[5] = molecular target: T2, ABCG2 (Homo sapiens, UniProt Q9UNQ0); test: Vanadate-sensitive ATPase activity of ABCG2 in Sf9 membrane preparations; assay type: biochemical; details: cholesterol-loaded Sf9 membranes, mean ± SEM, n=3
T2 sequence (Q9UNQ0 1-655): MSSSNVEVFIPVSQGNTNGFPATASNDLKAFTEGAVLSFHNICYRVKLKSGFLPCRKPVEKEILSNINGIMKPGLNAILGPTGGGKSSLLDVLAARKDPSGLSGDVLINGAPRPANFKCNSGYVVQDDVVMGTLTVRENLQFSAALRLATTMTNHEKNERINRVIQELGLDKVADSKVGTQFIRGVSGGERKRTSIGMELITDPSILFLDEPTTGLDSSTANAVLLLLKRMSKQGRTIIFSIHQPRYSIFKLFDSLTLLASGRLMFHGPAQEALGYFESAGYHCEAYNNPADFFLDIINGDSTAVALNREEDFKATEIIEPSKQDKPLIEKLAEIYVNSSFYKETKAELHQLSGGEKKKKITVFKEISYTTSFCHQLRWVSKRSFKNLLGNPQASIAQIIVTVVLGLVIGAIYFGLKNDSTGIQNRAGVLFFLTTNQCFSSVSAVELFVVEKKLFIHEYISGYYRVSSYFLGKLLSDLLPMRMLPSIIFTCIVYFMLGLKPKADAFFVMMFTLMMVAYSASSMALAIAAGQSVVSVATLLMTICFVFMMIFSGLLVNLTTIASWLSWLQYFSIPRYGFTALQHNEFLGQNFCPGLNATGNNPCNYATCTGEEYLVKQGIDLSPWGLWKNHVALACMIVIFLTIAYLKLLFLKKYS
Description: For ATPase activity measurements we used membrane samples derived from Sf9 (Spodoptera frugiperda) insect ovarian cells expressing human Pgp or ABCG2. cDNAs of the transporters were cloned into recombinant baculovirus transfer vectors, the Sf9 insect ovarian cells were cultured, and infected with the baculoviruses as described in ref. [52]. Sf9 cells overexpressing human Pgp and ABCG2 were harvested and cell membranes were isolated. The protein concentration of the membrane samples were determined by the Lowry method. The ABCG2 expressing Sf9 membrane samples were loaded with cholesterol by cholesterol-methyl-beta-cyclodextrine complex in order to obtain high specific ATPase activity of the transporter. Membrane samples were stored at −80 °C. The transporter expression of the membrane samples (5 μg membrane protein/slot) was routinely checked by immunoblot using the G-1 mAb (for Pgp) or BXP-21 mAb (for ABCG2) and a goat anti-mouse HRP-conjugated IgG secondary antibody. Both primary and secondary antibodies were from Santa Cruz Biotechnology Inc. (CA, USA) and applied at 1:5,000 dilution.
The vanadate-sensitive ATPase activity of Pgp and ABCG2 was determined by a colorimetric assay described in refs [32],[55]. Specific ATPase activity of the transporters was calculated from the amount of released inorganic phosphate. […]. The absorbance of the samples was measured at 700 nm using a BioTek Synergy HT plate reader (BioTek Instruments, Winooski, USA).
The half-inhibitory doses (IC50) of retinoids were determined by fitting the dose-response relationships with a four parameter sigmoidal curve, where Amax and Amin are the ATPase activities measured at zero and at infinitely high inhibitor concentrations, respectively, n is the Hill coefficient and x is the concentration of the inhibitor:
Upon studying the kinetics of inhibition of the substrate-stimulated ATPase activity by retinoids data points were fitted with a modified form of the Michaelis-Menten equation[56] which includes the Hill coefficient, n: […]
v0 is the basal ATPase activity measured in the absence of the stimulatory substrate, while vmax is the maximal extent of ATPase stimulation and KM is the Michaelis constant (i.e. the substrate concentration at which the reaction rate is half of vmax).

[6] = molecular target: T1, Pgp; details: Sf9 membranes
Description: (§4) For ATPase activity measurements we used membrane samples derived from Sf9 (Spodoptera frugiperda) insect ovarian cells expressing human Pgp or ABCG2. cDNAs of the transporters were cloned into recombinant baculovirus transfer vectors, the Sf9 insect ovarian cells were cultured, and infected with the baculoviruses as described in ref. [52]. Sf9 cells overexpressing human Pgp and ABCG2 were harvested and cell membranes were isolated. The protein concentration of the membrane samples were determined by the Lowry method[53]. The ABCG2 expressing Sf9 membrane samples were loaded with cholesterol by cholesterol-methyl-beta-cyclodextrine complex in order to obtain high specific ATPase activity of the transporter[54]. Membrane samples were stored at −80 °C. The transporter expression of the membrane samples (5 μg membrane protein/slot) was routinely checked by immunoblot using the G-1 mAb (for Pgp) or BXP-21 mAb (for ABCG2) and a goat anti-mouse HRP-conjugated IgG secondary antibody. Both primary and secondary antibodies were from Santa Cruz Biotechnology Inc. (CA, USA) and applied at 1:5,000 dilution.
(§5) The vanadate-sensitive ATPase activity of Pgp and ABCG2 was determined by a colorimetric assay described in refs [32],[55]. Specific ATPase activity of the transporters was calculated from the amount of released inorganic phosphate. […] The absorbance of the samples was measured at 700 nm using a BioTek Synergy HT plate reader (BioTek Instruments, Winooski, USA).

[7] = molecular target: T2, ABCG2; test: Mitoxantrone accumulation test (ABCG2 transport activity) in MDCK ABCG2 cells; details: 20 min pre-treatment 37 °C, 5 μM mitoxantrone 40 min
Description: as §2, §3

[8] = system: Pgp-positive and Pgp-negative NIH 3T3 cells; test: AlamarBlue in vitro cytotoxicity assay; assay type: cell-based, mouse; details: 72 h, NIH 3T3 and NIH 3T3 MDR1, Supplementary Fig. S3
Description: Supplementary Fig. S3: Cytotoxic effect of retinyl-acetate on Pgp-positive and Pgp-negative NIH 3T3 cells. The AlamarBlue (Serotec, UK) based in vitro cytotoxicity assay was performed as previously described 1. Cells were seeded in 96-well plates at a cell density of 5 × 10^3 cells/well. 24 hours later retinyl-acetate was added at different concentrations and the plates were further incubated for 72 h at 37 °C. The cell viability was determined measuring the 530/590 nm fluorescence intensity of the dye in an automated microplate reader (BioTec Synergy HT, US). The AlamarBlue fluorescence intensity of the samples was normalized to the fluorescence of the retinyl-acetate untreated samples, and plotted as a function of retinyl-acetate concentration. The data points are means of eight parallel samples (±SD).
(§1) (1 picture or pasted object on this page, not shown here)

[9] = molecular target: P-gp (human Pgp), basal vanadate-sensitive ATPase activity (Homo sapiens, UniProt P08183); test: in vitro; details: membranes of Sf9 insect cells expressing human Pgp, IC50 values, 10 min pre-incubation 37 °C, 3 mM ATP/Mg2+ 25 min, mean ± SEM, n=3
P-gp (human Pgp), basal vanadate-sensitive ATPase activity, sequence (P08183 whole entry): as the sequence (P08183 whole entry) above
Description: as §4, §5

[10] = system: Pgp- and ABCG2-negative NIH 3T3 and MDCK cells; test: Calcein and mitoxantrone accumulation in transporter negative cells; assay type: cell-based, mouse / canine; details: NIH 3T3 (calcein) and MDCK (mitoxantrone), Supplementary Fig. S1, 50 µM
Description: Supplementary Fig. S1: Effect of retinoid derivatives on the calcein (a) and
mitoxantrone (c) accumulation and viability (b, d) of Pgp- and ABCG2-negative NIH
3T3 and MDCK cells. Cells were pre-treated with retinoids added at 50 µM concentration
Cell viability was determined on the basis of propidium iodide exclusion.
as §1

[11] = molecular target: T1, Pgp; test: biochemical; details: IC50 values, Pgp stimulated (verapamil-stimulated) ATPase activity, 40 μM verapamil; Sf9 membranes; mean ± SEM, n=3
Description: as §4, §5

| SMILES | LogP (octanol-water partition coefficient, LogPow) [1] | Effect on TMA-DPH fluorescence anisotropy ([2]; retinoids 100 μM, cyclosporin 10 μM, Ko143 2 μM, 10 min 37 °C) | Effect on DPH fluorescence anisotropy [3] | Effect on calcein accumulation of Pgp expressing cells (Pgp transport activity) [4] | IC50 values, ABCG2 stimulated (quercetin-stimulated) ATPase activity ([5]; 10 μM quercetin) | IC50 values, ABCG2 basal ATPase activity [5] | IC50 values, Pgp stimulated (verapamil-stimulated) ATPase activity ([6]; 40 μM verapamil, mean ± SEM, n=3) | IC50 values, Pgp basal ATPase activity ([6]; 10 min pre-incubation 37 °C, 3 mM ATP/Mg2+ 25 min, mean ± SEM, n=3) | Effect on TMA-DPH fluorescence anisotropy, NIH 3T3 cell pair ([2]; 100 μM, NIH 3T3 and NIH 3T3 MDR1 cells) | Effect on mitoxantrone accumulation of ABCG2 expressing cells (ABCG2 transport activity) [7] | IC50 ([5]; 10 μM quercetin, read-out: IC50 values, ABCG2 stimulated (quercetin-stimulated) ATPase activity) | IC50 ([5]; read-out: IC50 values, ABCG2 basal ATPase activity) | Cytotoxicity profile in Pgp+ versus Pgp− cells [8] | IC50 at 25 min [9] | Effect on substrate accumulation of transporter negative cells [10] | Effect on the basal ATPase activity of Pgp ([6]; Fig. 2c) | Effect on DPH anisotropy in transporter expressing compared to non-expressing cells ([3]; Pgp+ vs Pgp− NIH 3T3, ABCG2 expressing vs non-expressing MDCK) | IC50 [11] |
| --- | --- | --- | --- | --- | --- | --- | --- | --- | --- | --- | --- | --- | --- | --- | --- | --- | --- | --- |
| COc1ccc2c3c([nH]c2c1)[C@H](CC(C)C)N1C(=O)[C@H](CCC(=O)OC(C)(C)C)NC(=O)[C@@H]1C3 [Ko143] | 3.5 | do not affect the overall membrane fluidity | do not affect the overall membrane fluidity | – | – | – | – | – | – | – | – | – | – | – | – | – | – | – |
| CCCCCCCCCCCCCCCC(=O)OC/C=C(C)/C=C/C=C(C)/C=C/C1=C(C)CCCC1(C)C [Retiny-palmitate, Retinyl-palmitate] | – | – | – | none of them had any effect | No effect | No effect | No effect | No effect | decreased the TMA-DPH anisotropies significantly | none of them had any effect | – | – | – | – | – | – | – | – |
| CC(=O)OC/C=C(C)/C=C/C=C(C)/C=C/C1=C(C)CCCC1(C)C [Retinyl-acetate] | 6.3 | – | increased the DPH fluorescence anisotropy values significantly | increased the cellular accumulation of the fluorescent transporter substrates in a concentration dependent manner | – | – | – | – | – | increased the cellular accumulation of the fluorescent transporter substrates in a concentration dependent manner | 70.4 ± 7.3 µM | 18.9 ± 4 µM | identical cytotoxicity profile | 36.8 ± 4 µM | did not have any effect | slightly stimulated | significantly lower effect | 19.1 ± 5 µM |
